{
  "source": "patent US8932853B2",
  "about": "“Method for manufacturing pancreatic-hormone-producing cells” (Takeda Pharmaceutical Company Limited, priority 2009, dated 2015)",
  "molecules": {"B1": {"name": "Wnt3a: differentiation-inducing factor generally used for endoderm induction along with activin A (protein, UniProt P56704 19-352, looked up)", "Protein Wnt-3a": "SYPIWWSLAVGPQYSSLGSQPILCASIPGLVPKQLRFCRNYVEIMPSVAEGIKIGIQECQHQFRGRRWNCTTVHDSLAIFGPVLDKATRESAFVHAIASAGVAFAVTRSCAEGTAAICGCSSRHQGSPGKGWKWGGCSEDIEFGGMVSREFADARENRPDARSAMNRHNNEAGRQAIASHMHLKCKCHGLSGSCEVKTCWWSQPDFRAIGDFLKDKYDSASEMVVEKHRESRGWVETLRPRYTYFKVPTERDLVYYEASPNFCEPNPETGSFGTRDRTCNVSSHGIDGCDLLCCGRGHNARAERRREKCRCVFHWCCYVSCQECTRVYDVHTCK"}, "B2": {"name": "Noggin: BMP antagonist (protein, UniProt Q13253 28-232, looked up)", "Noggin": "QHYLHIRPAPSDNLPLVDLIEHPDPIFDPKEKDLNETLLRSLLGGHYDPGFMATSPPEDRPGGGGGAAGGAEDLAELDQLLRQRPSGAMPSEIKGLEFSEGLAQGKKQRLSKKLRRKLQMWLWSQTFCPVLYAWNDLGSRFWPRYVKVGSCFSKRSCSVPEGMVCKPSKSVHLTVLRWRCQRRGGQRCGWIPIQYPIISECKCSC"}},
  "key": {"[1]": {"test_system": "progenitor cells of pancreatic hormone-producing cells induced from human iPS cells", "experiment": "quantitative RT-PCR of insulin and PDX1 after step (4)", "type": "cell-based", "conditions": "added in step (4) from day 10; forskolin 10 μM, nicotinamide 10 mM, dexamethasone 10 μM, ALK5 inhibitor II 5 μM; measured on day 12, 16 and 20; vs control without inducing factors", "experimental": "The expression level of PDX1, which is pancreatic progenitor cells marker, and insulin, which is pancreatic β cells (insulin-producing cells) marker, was measured in the same manner as in Example 1.\nThe medium was changed once on day 7 of induction. […] The medium was changed every 3-4 days. After culture, the expression level of insulin was measured in the same manner as in Experimental Example 1.\nThe medium was changed once on day 7 of induction. […] The medium was changed every 5 days.\nAfter culture under each condition, the expression levels of insulin in the cells on day 12 of differentiation induction, on day 16 of differentiation induction and day 20 of differentiation induction were measured in the same manner as in Example 1."}, "[2]": {"test_system": "progenitor cells of pancreatic hormone-producing cells induced from human iPS cells", "experiment": "immunofluorescent staining with anti-insulin antibody after step (4)", "type": "cell-based", "conditions": "each added alone in step (4), day 10 to day 21; forskolin 10 μM, dibutyl cAMP 500 μM, IBMX 200 μM, ALK5 inhibitor II 5 μM, A-83-01 0.5 μM, SB431542 10 μM, TGFβRI kinase inhibitor VIII 2 μM, dexamethasone 10 μM, hydrocortisone 5 μM, betamethasone 2 μM, beclomethasone 1 μM"}, "[3]": {"test_system": "endodermal cells induced from human iPS cells", "type": "cell-based", "conditions": "added simultaneously with dorsomorphin (1 μM) and retinoic acid (2 μM) day 3 to day 10; SB431542 5 μM, ALK5 inhibitor II 2 μM, A-83-01 0.2 μM, TGFβRI kinase inhibitor VIII 0.2 μM; vs dorsomorphin and retinoic acid alone", "protocol": "The dorsomorphin is an inhibitor of AMP-activated protein kinase (AMPK), and an inhibitor of ALK2, ALK3 and ALK6 from among activin receptor-like kinases (ALK). In addition, SB431542 is an inhibitor of ALK4, ALK5 and ALK7 from among ALKs.\nAs a control, the medium was changed to one added with dorsomorphin and retinoic acid alone (Ctrl). […] After the culture, the expression level of NGN3, which is progenitor cells of pancreatic hormone-producing cells marker, was measured in the same manner as in Example 1."}, "[4]": {"test_system": "endodermal cells induced from human iPS cells", "experiment": "immunofluorescent staining with anti-PDX1 antibody after step (3)", "conditions": "added simultaneously with retinoic acid (2 μM) for 7 days, day 3 to day 10; Noggin 100 ng/ml, dorsomorphin 1 μM"}, "[5]": {"test_system": "human iPS cells (253G1 strain)", "experiment": "immunofluorescent staining with anti-SOX17 antibody on day 3 of differentiation induction", "type": "cell-based", "conditions": "added with activin A (100 ng/ml) for 1 day, then activin A alone 2 days, CHIR99021 3 μM, Wnt3a 25 ng/ml, SB415286 3 μM, SB216763 20 μM", "protocol": "To examine expression of SOX17 protein after culture for 3 days, immunofluorescent staining using an anti-SOX17 antibody was performed. After culture up to day 3 in the same manner as in FIG. 1, the cells were fixed with 2% para-formaldehyde (PFA) for 10 min and further for 20 min with 4% PFA at room temperature.\nWhether even use of a GSK3 inhibitor other than CHIR99021 in step (1) enables differentiation induction into endodermal cells was examined. The differentiation of human iPS cells into endodermal cells was induced according to the following method. […] Thereafter, the cells were washed with RPMI medium (GIBCO), and cultured for 1 day in RPMI medium containing various GSK3 inhibitors, activin A (100 ng/ml) and 2% fetal bovine serum (FBS). […] As a control, the cells were treated with a medium added only with activin A and free of GSK3 inhibitor. After culture for 1 day, the cells were washed with RPMI medium, and further cultured for 2 days in RPMI medium added with 2% FBS and 100 ng/ml activin A.\nTo examine expression of SOX17 protein on day 3 of differentiation induction, immunofluorescent staining using an anti-SOX17 antibody was performed. 4% PFA was added to the cells on day 3 of culture under each condition, the mixture was incubated at room temperature for 30 min to fix the cells."}, "[6]": {"test_system": "human iPS cells (253G1 strain)", "experiment": "quantitative RT-PCR of BRACHYURY and SOX17 during induction of human iPS cells into endodermal cells, steps (1)-(2)", "type": "cell-based", "conditions": "added with activin A (100 ng/ml) only the first day, CHIR99021 3 μM, Wnt3a 25 ng/ml, relative to GAPDH", "source_text": "As a first stage for induction of differentiation of human iPS cells (iPS cells obtained by introducing Oct3/4 gene, Klf4 gene and Sox2 gene: see Nat Biotechnol 2008; 26: 101-106) into pancreas cells (particularly pancreatic hormone-producing cells), differentiation of human iPS cells was induced into endodermal cells by using a 96 well plate.\nAs the human iPS cells, 253G1 strain (iPS cell line produced by expressing OCT4/SOX2/KLF4 with retrovirus; Nature Biotechnology 26, 101-106) was used. Maintenance culture of the iPS cells in an undifferentiated state was performed using mitomycin-treated mouse fibroblast (MEFs) seeded on a gelatin-coated plate as feeder cells, and a medium for primate ES cells (ReproCELL Incorporated) added with 4 ng/ml bFGF (PeproTech EC) and 0.5× Penicillin-streptomycin (SIGMA) as a medium at 37° C. under 5% CO2. The medium was changed every day, the cell mass was detached every 4-5 days using a cell detachment solution for primate ES cell (ReproCELL Incorporated), and passaged by seeding on new feeder cells.\nAs a preculture for differentiation induction into endodermal cells, undifferentiated iPS cells were seeded in a 96 well plate. First, iPS cells maintained in a cell mass was treated with 0.25% trypsin-1 mM EDTA solution (GIBCO) and dissociated until they became single cells. Then, iPS cells dispersed in a medium were seeded in a 96 well plate at a density of 2×10^4 cells per well and cultured at 37° C. under 5% CO2 for 1 day. The 96 well plate used had been gelatin-coated, seeded with 5×10^3 MEFs and cultured at 37° C. under 5% CO2 for 5 hr. In addition, as a culture medium for seeding, a medium for primate ES cells added with 10 μM Y-27632 (Wako Pure Chemical Industries, Ltd.) was used. One day after seeding, the medium was changed to a medium for primate ES cells without Y-27632, and the cells were further cultured for 2 days until they became confluent.\nDifferentiation of iPS cells into endodermal cells was induced according to the following method. First, the confluent cells were washed with RPMI medium (GIBCO), RPMI medium containing various differentiation-inducing factors and 2% fetal bovine serum (FBS) was added, and the mixture was cultured for 1 day. […]\nTo examine variation in the expression of endoderm differentiation marker when cultured under each condition, differentiation-induced cells were recovered over time, and the total RNA fractions were purified using RNeasy96 (Qiagen). Using a PrimeScript RT reagent kit (Takara Bio Inc.), cDNA was synthesized, and quantitative RT-PCR was performed, whereby the gene expression level of BRACHYURY, which is a primitive streak marker, and SOX17, which is an endodermal marker, was measured."}},
  "note": "“Also recorded” adds a separate entry of the source.",
  "data": [
    {"molecule": "Cc1cccc(-c2n[nH]cc2-c2ccc3ncccc3n2)n1", "note": "[ALK5 inhibitor II, 2-[3-[6-methylpyridin-2-yl]-1H-pyrazol-4-yl]-1,5-naphthyridine]", "values": [
      {"measurement": "expression level of insulin", "setting": "[1]", "result": "increased markedly; also recorded: high value"},
      {"measurement": "positive rate of insulin-expressing cells", "setting": "[2]", "result": "remarkably increased; also recorded: induced differentiation into insulin-positive cells with high efficiency"},
      {"measurement": "expression level of NGN3", "setting": "[3]", "result": "increased remarkably"}
    ]},
    {"molecule": "c1cc(-c2cnn3cc(-c4ccc(OCCN5CCCCC5)cc4)cnc23)ccn1", "note": "[dorsomorphin, 6-[4-(2-piperidin-1-ylethoxy)phenyl]-3-pyridin-4-ylpyrazolo[1,5-a]pyrimidine]", "values": [
      {"measurement": "differentiation into PDX1-positive cells", "setting": "[4]", "result": "remarkably induced; also recorded: many cells were induced into PDX1-positive cells"}
    ]},
    {"molecule": "B1", "values": [
      {"measurement": "ratio of cells expressing SOX17 protein", "setting": "[5]", "result": "a part of the cells also expressed SOX17 protein; also recorded: remarkably detected"},
      {"measurement": "expression level of SOX17 (endodermal marker)", "setting": "[6]; then activin A alone 2 days, days 2-3", "result": "also lower than with a treatment with CHIR99021; also recorded: high value"},
      {"measurement": "expression level of BRACHYURY (primitive streak marker)", "setting": "[6]; day 1 of differentiation induction", "result": "lower than with a treatment with CHIR99021"}
    ]},
    {"molecule": "B2", "values": [
      {"measurement": "differentiation into PDX1-positive cells", "setting": "[4]", "result": "remarkably induced; also recorded: many cells were induced into PDX1-positive cells"}
    ]}
  ]
}
